Reference: patent US20230058178A1, “METHODS AND MATERIALS FOR TREATING NERVE INJURY AND/OR PROMOTING WOUND HEALING” (The Penn State Research Foundation, priority 2020, published 2023)

Experiments:
nerve transection = assay: Triceps surae muscle tension after sciatic nerve transection (laceration) injury; format: in vivo, rat; settings: 150 μg/kg i.p.
Experimental: (§1) Sciatic nerve innervates triceps surae muscle and thus sciatic nerve conduction can be measured in terms of triceps surae muscle contraction. As shown in this experimental setup (FIG. 2) sciatic nerve was electrically stimulated proximal to crush site, and triceps surae muscle tension was measured by force transducer (FT10; Grass Instruments).
(§2) Briefly, Sprague-Dawley (SD) rats were anaesthetized with 3-4% isoflurane, the trachea was cannulated, and the lungs were mechanically ventilated (Harvard Apparatus) with oxygen balanced vaporized 2% isoflurane. The sciatic nerve and triceps surae muscles were exposed by blunt dissection and the calcaneal tendon was severed and linked with braided fishing line to a force transducer. A shielded stimulating electrode was placed under sciatic nerve and injury was performed distal to a stimulating electrode. Sciatic nerve underwent a standardized crush injury with blunt forcep (Miltex #18-1107) and jig or laceration injury with fine scissors. Sciatic nerve crush injury was done 3 mm proximal to trifurcation. The triceps surae muscles were contracted for 10 seconds at 40 Hz, 0.1 ms pulse, and a voltage two times above the motor threshold.

[1] = tested on: sciatic nerve crush injury; assay: Triceps surae muscle tension 3 days post sciatic nerve crush injury; format: in vivo, rat; settings: 3 days post crush
From the text: Sciatic nerve crush injury was done 3 mm proximal to trifurcation.
Anesthesia was maintained with 2% isoflurane.

[2] = cited from earlier work
[3] = tested on: sciatic nerve crush injury; assay: Triceps surae muscle tension immediately after sciatic nerve crush injury; format: in vivo, rat
Experimental: as §1, §2

[4] = 150 μg/kg i.p., SD rat
Experimental: 4-AP stock was prepared in saline and i.p. dose of 150 μg/kg was administered in rats.
Circulating level of 4-AP in rat serum sample was evaluated using ABSciex 4000 Q Trap mass spectrometry coupled with a Waters Acquity UPLC separation (UPLC/MS/MS) system in the Mass Spectrometry Core Facility in College of Medicine of Penn State University.
4-AP-d4 was used as an internal standard. The multiple reaction monitoring mode (MRM) was used to analyze and quantify 4-AP and 4-AP-d4, with the transitions of m/z 95>78 for 4-AP and 99>82 for 4-AP-d4. 4-AP was quantified by using a standard curve which was constructed by plotting the ratio of the peak area of 4-AP to the peak area 4-AP-d4 versus 4-AP concentration (0.01 μM-20 μM). All peaks were integrated and quantified by ABSciex Multiquan 2.1 software.

[5] = tested on: sciatic nerve crush injury; settings: systemic administration (Tseng et al. 2016); cited from earlier work
[6] = tested on: Dorsal skin excision wounds; assay: Dorsal skin excision wound closure; format: in vivo, mouse
Experimental: Dorsal skin excision wounds (5-mm diameter) were made on 7-8-week-old wild-type C57BL/6 mice (FIG. 15). Mice were systemically administered saline (control) or 80 μg of 4-AP daily for 14 days. All mice were subjected to functional wound healing and tissue regeneration image-based assays at days 0, 3, 7, 10, and 14. The wound size of each mouse was measured and compared to zero day wound diameter from digital images. The percentage of wound closure was calculated by using the formula:
Wound closure (%)=(area of original wound−area of actual wound)/area of original wound×100.

## Nc1ccncc1 [4-AP, 4-aminopyridine]
Nerve transection
  restoration of nerve conduction upon treatment: does not occur
[1]; lower stimulation voltage, 30 minutes after 150 μg/kg i.p. or local thermogel
  muscle tension: 250 g
[1]; systemic or local treatment
  AUC of muscle tension: significantly increased
  Muscle response increase over a crush: 80%
  peak muscle tension: significantly increased
[2]
  human tolerable limit of serum 4-AP: 100 ng/mL
[3]; 30 minutes after 4-AP 150 μg/kg i.p. or local thermogel, 2100 g before injury, none post crush
  muscle tension: 900 g
[3]; systemic (150 μg/kg i.p.) or local treatment
  Muscle response increase over a crush: 800%
[3]; systemic or local treatment
  AUC of muscle tension: significantly increased
  peak muscle tension: significantly increased
[4]
  4-AP concentration in serum: tolerable 4-AP concentration in serum
[5]
  motor functional recovery after sciatic nerve crush injury: improve motor functional recovery after sciatic nerve crush injury
[6]; by seven days, systemic delivery
  reduction in wound area as compared to control animals: at least 50%
[6]; day 3, 5 mm wound at day 0, 80 μg daily systemic (saline 5 mm)
  diameter/width of the wound area: 4.0 mm
[6]; day 7, 80 μg daily systemic (saline 2.7 mm)
  diameter/width of the wound area: 1.5 mm
[6]; day 10, 80 μg daily systemic (saline 1.0)
  diameter/width of the wound area: 0.3 mm
[6]; in three days, systemic delivery
  wound area reduction as compared to control animals: at least 10%
[6]; systemic administration
  wound healing compared to saline treated mice: accelerates the wound healing process
